Patent publication US20260274857A1, “CRYSTAL OF DIHYDROPYRIDINONE DERIVATIVE OR SOLVATE THEREOF” (Shionogi & Co., Ltd., priority 2022, published 2026)

Legend:
Type in all cases: physicochemical
[1] = Powder solubility test (JP-1, JP-2, TCA/JP2); conditions: 37° C., 1 hour; for JP1 solubility: JP-1 solution; for TCA/JP2 solubility: JP-2 solution added with taurocholic acid; for JP2 solubility: JP-2 solution
Method: The solubility of the crystal of the present invention was evaluated with respect to the solubility when JP-1 solution, JP-2 solution, and JP-2 solution added with taurocholic acid (TCA/JP2) were used as a measurement medium. Evaluation was performed at a dissolved concentration (μg/mL) by an HPLC method.
About 1 mg of the crystal of the present invention was weighed in a 4 mL glass container, and 2 mL of JP-2 solution (1000 mL of water was added to 1.70 g of potassium dihydrogen phosphate and 1.775 g of anhydrous disodium hydrogen phosphate) was added to each container. The mixture was sealed with a polyethylene stopper with Teflon and silicone packing, shaken at 37° C. for 1 hour, and then filtered, and 400 μL of methanol was added to 800 μL of the filtrate to perform 1.5 fold dilution. Whether there were bubbles and precipitates was confirmed, and the compound of the crystal of the present invention was quantified using HPLC by an absolute calibration curve method to calculate the solubility.

[2] = Moisture adsorption/desorption isotherm measurement (DVS); conditions: for difference in water content between 0% RH and 95% RH: 25° C.
Source text: The moisture adsorption/desorption isotherm measurement is a measurement method for measuring the adsorption and desorption behavior of moisture by measuring a weight change in a solid as a measurement target under each relative humidity condition.
As a basic measurement method, based on the dry weight at 0% RH (relative humidity 0%), the relative humidity is increased every 5% or 10%, and after the weight is stabilized at each relative humidity, the amount of adsorbed water can be determined from the weight increase from the reference value. Similarly, the desorption amount of water can be measured by decreasing the relative humidity every 5% or 10% from 100% RH or 95% RH.
By plotting the value of the weight change at each relative humidity, an adsorption/desorption isotherm can be obtained.
Sorption and desorption of adhesion water and crystal water are affected by particle size, crystallinity, crystal habit, and the like, so that the measurement results may slightly change.
The crystals and amorphous substances obtained in each Example were weighed in an aluminum pan, and allowed to stand at 25° C. and a relative humidity of 0%. The measurement was started after the compound was sufficiently dried and the weight was stabilized, and the weight when the relative humidity changed from 0% to 95% by 5% was recorded. Next, the weight when the relative humidity changed from 95% to 0% by 5% was recorded.
Device: DVS Advantage manufactured by Surface Measurement Systems

[3] = Test Example 2: solid stability, 40° C. 89% RH 3 months, amount of analogous substance
Method: The crystal and amorphous substance of the compound represented by Formula (I) obtained in Example 1 were stored (40° C., 89% RH 3M) in a hermetically sealed container at 40° C. and a relative humidity of 89% for 3 months, and subjected to a solid stability test to evaluate the amount of an analogous substance.
The crystal or amorphous substance of the compound represented by Formula (I) obtained in Example 1 was dissolved in an acetonitrile aqueous solution (acetonitrile:water=1:1) to prepare a sample solution to be exactly 500 μg/mL.
The purity and the amount of the analogous substance were measured by an area percentage method under the HPLC conditions 1 described in Test Example 1.
The results of the crystal and amorphous substance of the compound represented by Formula (I) obtained in Example 1 are described in the following table. Impurities detected at a retention time (RT, retention time) of 17.527 minutes indicate an increase amount with respect to a standard product.

[4] = Solid stability test: storage stability (amount of analogous substance by HPLC, appearance); conditions: temperature, temperature and humidity conditions, light irradiation; analogous substance by HPLC and appearance
Method: For the solid stability of the crystal of the compound represented by Formula (I) obtained in Example 1 and the crystal of the compound represented by Formula (II) obtained in Example 16, the chemical stability under temperature, temperature and humidity conditions, and light irradiation was evaluated. The proportion (%) of the analogous substance produced by an HPLC method and the change in appearance were evaluated.
About 10 mg of the crystal was accurately weighed in a 2 mL glass container with a polyethylene stopper. After the glass container was closed, the glass container was stored at 40° C. or 60° C. for 2 weeks, 1 month, 2 months, 3 months, or 6 months. A sample stored at 40° C. is referred to as a 40° C. hermetically sealed product, and a sample stored at 60° C. is referred to as a 60° C. hermetically sealed product. In a state where the glass container was opened, the glass container was stored at a relative humidity of 75±5% at 40° C. or a relative humidity of 89±5% for 2 weeks, 1 month, 2 months, 3 months or 6 months, or in the presence of silica gel at 40° C. for 1 month, 2 months, 3 months or 6 months. A sample stored at 40° C. and a relative humidity of 75±5% or 89±5% is referred to as a 40° C. and 75% relative humidity (also referred to as 40±2° C./75±5% RH) or 40° C. and 89% relative humidity (also referred to as 40±2° C./89% RH) stored product, and a sample stored in the presence of silica gel at 40° C. is referred to as a 40° C. stored product. The −40° C. hermetically sealed product was used as a standard product.
The amount of the analogous substance was measured by an area percentage method by the HPLC method under the following conditions.
HPLC Conditions 1 were used for the crystal and amorphous substance of the compound represented by Formula (I) obtained in Example 1, and HPLC conditions 2 were used for the crystal of the compound represented by Formula (II) obtained in Example 16.
• Detector: ultraviolet absorptiometer (measurement wavelength: 260 nm) • Column: YMC-Triart C18 ExRS, S-1.9 μm, 3.0×100 mm • Column temperature: constant temperature at near 40° C. • Mobile phase A: 0.1% formic acid aqueous solution • Mobile phase B: acetonitrile • Flow rate: about 0.6 mL/min • Injection amount: 3 μL • Sample cooler temperature: about 6° C. • Feed of mobile phase: The mixing ratio of mobile phase A and mobile phase B was changed as shown in Table 18 to control concentration gradient.
Column: Cortecs (2.7 μm 3.0×100 mm)
Column temperature: 40° C.
UV detection wavelength: 254 nm

## CS(=O)(=O)CC(=O)Nc1c2c(nn1CCCOC(F)(F)F)CC1(CCOc3cc(OCC(F)(F)F)ccc31)NC2=O (stereo not drawn) [Compound crystal of Formula (II)]
[1]
  JP1 solubility: 33.6 µg/mL
  TCA/JP2 solubility: 73.6 µg/mL
  JP2 solubility: 37.5 µg/mL

## Cc1ccc(-n2nc3c(c2NC(=O)CS(C)(=O)=O)C(=O)N[C@@]2(CCOc4cc(F)cc(F)c42)C3)nc1 [amorphous substance of the compound represented by Formula (]
[2]; DVS
  difference in water content between 0% RH and 95% RH: about 7.0%
[3]
  impurities detected at a retention time of 17.527 minutes, increase with respect to standard product (in words): greatly increased

## Cc1ccc(-n2nc3c(c2NC(=O)CS(C)(=O)=O)C(=O)NC2(CCOc4cc(F)cc(F)c42)C3)nc1 (stereo not drawn) [Compound crystal of Formula (I)]
[1]
  JP1 solubility: 59.4 µg/mL
  TCA/JP2 solubility: 143.1 µg/mL
  JP2 solubility: 74.1 µg/mL

## CS(=O)(=O)CC(=O)Nc1c2c(nn1CCCOC(F)(F)F)C[C@@]1(CCOc3cc(OCC(F)(F)F)ccc31)NC2=O [crystal of the compound represented by Formula (II) obtained]
[4]
  solid stability (in words): excellent in solid stability under any conditions
[2]; DVS, 0% to 95% RH
  hygroscopicity (in words): no problem in hygroscopicity
[2]; DVS
  difference in water content between 0% RH and 95% RH: about 0.4%
[2]; relative humidity 0.0%
  Moisture adsorption amount (%): 0.0000%
  Moisture desorption amount (%): 0.0690%
[2]; relative humidity 5.0%
  Moisture adsorption amount (%): 0.0149%
  Moisture desorption amount (%): 0.1029%
[2]; relative humidity 10.0%
  Moisture adsorption amount (%): 0.0250%
  Moisture desorption amount (%): 0.1252%
[2]; relative humidity 15.0%
  Moisture adsorption amount (%): 0.0352%
  Moisture desorption amount (%): 0.1435%
[2]; relative humidity 20.0%
  Moisture adsorption amount (%): 0.0494%
  Moisture desorption amount (%): 0.1610%
[2]; relative humidity 25.0%
  Moisture adsorption amount (%): 0.0623%
  Moisture desorption amount (%): 0.1773%
[2]; relative humidity 30.0%
  Moisture adsorption amount (%): 0.0758%
  Moisture desorption amount (%): 0.1922%
[2]; relative humidity 35.0%
  Moisture adsorption amount (%): 0.0893%
  Moisture desorption amount (%): 0.2077%
[2]; relative humidity 40.0%
  Moisture adsorption amount (%): 0.1042%
  Moisture desorption amount (%): 0.2206%
[2]; relative humidity 45.0%
  Moisture adsorption amount (%): 0.1204%
  Moisture desorption amount (%): 0.2348%
[2]; relative humidity 50.0%
  Moisture adsorption amount (%): 0.1387%
  Moisture desorption amount (%): 0.2497%
[2]; relative humidity 55.0%
  Moisture adsorption amount (%): 0.1563%
  Moisture desorption amount (%): 0.2659%
[2]; relative humidity 60.0%
  Moisture adsorption amount (%): 0.1746%
  Moisture desorption amount (%): 0.2822%
[2]; relative humidity 65.0%
  Moisture adsorption amount (%): 0.2016%
  Moisture desorption amount (%): 0.3038%
[2]; relative humidity 70.0%
  Moisture adsorption amount (%): 0.2334%
  Moisture desorption amount (%): 0.3289%
[2]; relative humidity 75.0%
  Moisture adsorption amount (%): 0.2619%
  Moisture desorption amount (%): 0.3464%
[2]; relative humidity 80.0%
  Moisture adsorption amount (%): 0.2937%
  Moisture desorption amount (%): 0.3627%
[2]; relative humidity 85.0%
  Moisture adsorption amount (%): 0.3268%
  Moisture desorption amount (%): 0.3782%
[2]; relative humidity 90.0%
  Moisture adsorption amount (%): 0.3695%
  Moisture desorption amount (%): 0.4013%
[2]; relative humidity 95.0%
  Moisture adsorption amount (%): 0.4243%
  Moisture desorption amount (%): 0.4243%
